Where two headings read alike, the source gives them in different places.
Tests used:
[1] = system: Mycobacterium tuberculosis H37Rv; assay type: cell-based
[2] = system: Salmonella enterica serovar Typhimurium
Experimental: Salmonella enterica serovar Typhimurium bacteria were grown in liquid medium as detailed in the text in the presence different concentrations of itaconic acid or cis-aconitate (5, 10, 50, 100 mM). Growth was measured as optical density (OD) at indicated time points.

[3] = target: T1, human IRG1 (Homo sapiens, UniProt A6NK06); experiment: CAD activity assay, Michaelis-Menten kinetics of purified human IRG1; assay type: biochemical; details: substrate cis-aconitic acid 0 to 1 mmol/l, pH=6.2, 37° C., read-out: Michaelis-Menten constant KM for itaconic acid formation
T1 construct: made in house
T1 sequence (A6NK06 1-481): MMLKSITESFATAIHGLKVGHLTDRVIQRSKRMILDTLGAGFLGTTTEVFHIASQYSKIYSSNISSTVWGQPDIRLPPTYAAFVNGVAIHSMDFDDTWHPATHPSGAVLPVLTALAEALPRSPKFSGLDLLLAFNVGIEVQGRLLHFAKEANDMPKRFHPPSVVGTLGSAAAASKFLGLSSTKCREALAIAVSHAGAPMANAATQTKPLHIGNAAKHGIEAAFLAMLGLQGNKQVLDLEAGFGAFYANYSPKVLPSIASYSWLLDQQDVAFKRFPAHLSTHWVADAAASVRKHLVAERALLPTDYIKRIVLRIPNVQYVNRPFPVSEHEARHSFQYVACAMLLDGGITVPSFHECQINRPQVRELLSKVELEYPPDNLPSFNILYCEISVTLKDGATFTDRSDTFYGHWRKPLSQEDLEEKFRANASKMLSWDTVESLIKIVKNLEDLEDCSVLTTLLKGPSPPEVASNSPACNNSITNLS
Experimental: (§1) The purified proteins were then used for enzyme activity assays. Cis-aconitic acid was used as a substrate at concentrations in the range of 0 to 1 mmol*I^−1 at pH=6.2 and 37° C. To determine the time dependent itaconic acid production, itaconic acid level was measured after 5 and 15 min of incubation. To determine the correlation between itaconic acid production and IRG1 activity, the substrate concentrations were plotted against the rate of itaconic acid formation.
(§2) Proteins produced in HEK293FT cells, which have been transfected with human and mouse pCMV6-Irg1 overexpression plasmid as well as pCMV6-Entry plasmid, were purified, separated on SDS-Page, detected with western blotting or silver staining and characterized with in-vitro enzyme assays.
(§3) Enzyme solutions were used from F1 as well as F2 and cis-aconitic acid and citric acid were used as substrates. Sampling took place 5 min and 15 min after enzyme supplementation. 95 μl enzyme solution were transferred into sampling tubes containing 230 μl methanol at −20° C. and centrifuged for 10 min at 4° C. with 16,000×g. 290 μl were dried in glass vials under vacuum and analyzed with GC-MS. […] The kinetic parameter Km of the purified enzymes was determined with Michaelis-Menten model using the statistical tool R (R Development Core Team, 2011).

[4] = system: human PBMCs-derived macrophages; experiment: NO donor treatment of human PBMCs-derived macrophages, itaconic acid levels; assay type: cell-based; details: 1, 10, 100 μM, with or without LPS, 12 h
Experimental: Human PBMCs were seeded and differentiated into macrophages as described above. Diethylamine NONOate (DEA NONOate, Sigma), an intracellular NO donor, was added at different concentrations (1, 10, 100 μM) alone or together with LPS (100 μg/ml). After 12 h of incubation, the metabolites were extracted.
After 12 h, 180 μl of medium was harvested and combined with 20 μl of 1 mM NaOH on ice to stop the dissociation reaction. Levels of nitrite formed from the reaction with H2O were determined using the Griess assay. In brief, 50 μl of medium sample or nitrite IC standard (Sigma) was pipetted in triplicate in a 96-well plate. To each well, equal volumes of 1× Griess Reagent (Sigma) were added. Absorbance was read at 540 nm and nitrite concentrations were calculated.

[5] = target: T2, Irg1 protein (Mus musculus, UniProt P54987); experiment: Cis-aconitate decarboxylase activity of extracts and purified fractions from HEK293T cells transfected with pCMV6-Entry-Irg1; assay type: biochemical; details: 1 mM cis-aconitate, 30° C., 40 min
T2 construct: made in house; host or cells: HEK293T
T2 sequence (P54987 1-488): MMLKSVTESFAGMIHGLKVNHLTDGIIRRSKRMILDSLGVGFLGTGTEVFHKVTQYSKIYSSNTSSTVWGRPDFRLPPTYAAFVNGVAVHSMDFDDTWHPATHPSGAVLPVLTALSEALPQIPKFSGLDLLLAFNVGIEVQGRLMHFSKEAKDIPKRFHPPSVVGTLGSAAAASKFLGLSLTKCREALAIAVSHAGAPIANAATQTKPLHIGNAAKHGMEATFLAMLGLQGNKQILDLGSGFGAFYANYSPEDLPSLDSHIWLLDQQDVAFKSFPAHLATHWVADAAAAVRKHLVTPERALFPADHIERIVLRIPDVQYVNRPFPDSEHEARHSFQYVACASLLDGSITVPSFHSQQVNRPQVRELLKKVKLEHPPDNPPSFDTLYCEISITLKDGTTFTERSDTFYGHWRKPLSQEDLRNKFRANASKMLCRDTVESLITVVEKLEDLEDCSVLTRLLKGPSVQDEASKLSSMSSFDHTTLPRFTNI
Experimental: Protein concentration was measured by the Bradford assay using Bradford reagent (Bio-Rad). […] Reactions were stopped by addition of 900 μl methanol/water (8:1) mix. […] (Labconco).

[6] = target: T3, murine IRG1 (Mus musculus, UniProt P54987); experiment: CAD activity assay, Michaelis-Menten kinetics of purified murine IRG1; assay type: biochemical; details: substrate cis-aconitic acid 0 to 1 mmol/l, pH=6.2, 37° C., read-out: Michaelis-Menten constant KM for itaconic acid formation
T3 construct: made in house
T3 sequence (P54987 1-488): T2 sequence (P54987 1-488)
Experimental: as §1, §2, §3

Q: `O=C(O)/C=C(/CC(=O)O)C(=O)O` [cis-aconitate, cis-aconitic acid, reference compound] was tested. Which “effect on M. tuberculosis growth” value ([1]; medium supplemented with cis-aconitate, acetate or glycerol) did it give?
A: The value was “more pronounced growth”.

Q: And the “effect on S. enterica growth” value ([2]; medium supplemented with cis-aconitate, acetate)?
A: Its value is “more pronounced growth”.

Q: Which Km [3] does the source give for “IRG1 human: Flag-tagged human immune-responsive gene 1 protein (SEQ ID NO 2) purified from transfected HEK293T cells” here?
A: Its Km is 30 µM.

Q: `CCN(CC)/[N+]([O-])=N/O.CCNCC` [diethylamine NONOate, Diethylamine NONOate] was tested. Which “effect on intracellular itaconic acid levels” value [4] did it give?
A: The value was “could not detect any effect”.

Q: “FLAG-tagged Irg1 protein: FLAG-tagged Irg1 protein from HEK293T cells transfected with pCMV6-Entry-Irg1; presumably murine Irg1” was tested. Which cis-aconitate decarboxylase activity [5] did it give?
A: Its cis-aconitate decarboxylase activity is “catalyzed the conversion of cis-aconitate to itaconic acid”.

Q: For `C=C(CC(=O)O)C(=O)O` [itaconic acid], which “concentration at which growth of M. tuberculosis was completely inhibited” value [1] is on record?
A: The value was 25 to 50 mM.

Q: What about the “effect on M. tuberculosis growth” value ([1]; glycerol as carbon source) of the same molecule?
A: The value was “does not affect the bacterial growth”.

Q: What about the “concentration inhibiting M. tuberculosis growth” value ([1]; glycerol with 0.1 μM propionate) of the same molecule?
A: Its value is 5 to 10 mM.

Q: What about the “effect on S. enterica growth” value ([2]; glucose as carbon source) of the same molecule?
A: Its value is “does not affect the bacterial growth”.

Q: What about the “concentration at which significant effects on S. enterica growth were observed” value ([2]; liquid medium with acetate as unique carbon source) of the same molecule?
A: The value was 10 mM.

Q: How did the Km [6] turn out when “IRG1 mouse: Flag-tagged mouse immune-responsive gene 1 protein (SEQ ID NO 4) purified from transfected HEK293T cells” was run?
A: Its Km is 70 µM.
